Drawing on patent US5530126A, “Process for the preparation of substituted 6-(pyrazol-3yl)-1,4-benzoxazin-3-ones” (Monsanto Company, priority 1994, dated 1996), this text covers inhibition for 7 compounds.

Common to all, as to assay type: in vivo
Test [1] concerns Annual bluegrass. The experiment in a line: Pre-emergence herbicide test. Conditions: read-out: % plant inhibition (Anbg); for inhibition at 1120 g/ha: 1.12 kg/ha; for inhibition at 11210 g/ha: 11.21 kg/ha. Put shortly:
(§1)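 Sow seeds on compacted topsoil; apply compound in acetone/water to seed bed; cover with untreated topsoil; grow in greenhouse with bottom watering; score % inhibition at 10-14 days.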

The subject of test [2] is Barnyardgrass. Nature of the test: Pre-emergence herbicide test. Conditions: Echinochloa crus-galli, read-out: % plant inhibition (Bygr); for inhibition at 1120 g/ha: 1.12 kg/ha; for inhibition at 11210 g/ha: 11.21 kg/ha. The gist of the method: as §1
The test system of test [3] is Cocklebur. The experiment in a line: Pre-emergence herbicide test. The conditions noted are these: Xanthium strumarium, read-out: % plant inhibition (Cobu); for inhibition at 1120 g/ha: 1.12 kg/ha; for inhibition at 11210 g/ha: 11.21 kg/ha. The gist of the method: as §1
Test [4] has as its system Downy Brome. The experiment in a line: Pre-emergence herbicide test. Conditions: Bromus tectorum, read-out: % plant inhibition (Dobr); for inhibition at 1120 g/ha: 1.12 kg/ha; for inhibition at 11210 g/ha: 11.21 kg/ha. Put shortly:
as §1

The subject of test [5] is Indian Mustard. The experiment in a line: Pre-emergence herbicide test. Conditions: Brassica juncea, read-out: % plant inhibition (Inmu); for inhibition at 1120 g/ha: 1.12 kg/ha; for inhibition at 11210 g/ha: 11.21 kg/ha. Put shortly:
as §1

The subject of test [6] is Morningglory. Nature of the test: Pre-emergence herbicide test. Conditions: Ipomoea, read-out: % plant inhibition (Mogl); for inhibition at 1120 g/ha: 1.12 kg/ha; for inhibition at 11210 g/ha: 11.21 kg/ha. Put shortly: as §1
Test [7] relates to Seedling johnsongrass. The experiment in a line: Pre-emergence herbicide test. Conditions: Sorghum halepense, read-out: % plant inhibition (Sejg); for inhibition at 1120 g/ha: 1.12 kg/ha; for inhibition at 11210 g/ha: 11.21 kg/ha. The gist of the method:
as §1

For test [8], the system named is Velvetleaf. The experiment in a line: Pre-emergence herbicide test. Conditions: Abutilon theophrasti, read-out: % plant inhibition (Vele); for inhibition at 1120 g/ha: 1.12 kg/ha; for inhibition at 11210 g/ha: 11.21 kg/ha. The gist of the method:
as §1

In test [9] the test system is Wild buckwheat. Nature of the test: Pre-emergence herbicide test. The conditions noted are these: Fallopia convolvulus, read-out: % plant inhibition (Wibw); for inhibition at 1120 g/ha: 1.12 kg/ha; for inhibition at 11210 g/ha: 11.21 kg/ha. The gist of the method: as §1
In test [10] the test system is Yellow nutsedge. Nature of the test: Pre-emergence herbicide test. The conditions noted are these: Cyperus, read-out: % plant inhibition (Yens); for inhibition at 1120 g/ha: 1.12 kg/ha; for inhibition at 11210 g/ha: 11.21 kg/ha. The gist of the method:
as §1

Test [11] has as its system Annual bluegrass. The experiment in a line: Post-emergence herbicide test. The conditions noted are these: read-out: % plant inhibition (Anbg); for inhibition at 1120 g/ha: 1.12 kg/ha; for inhibition at 11210 g/ha: 11.21 kg/ha. Put shortly: (§2)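 Foliar spray trial in greenhouse pans: two- to three-week-old plants treated at 200 gallons/acre by atomizer, spray containing about 0.4% emulsifier. Percent inhibition compared with untreated controls was recorded around day 11.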

In test [12] the test system is Barnyardgrass. Nature of the test: Post-emergence herbicide test. Conditions: Echinochloa crus-galli, read-out: % plant inhibition (Bygr); for inhibition at 1120 g/ha: 1.12 kg/ha; for inhibition at 11210 g/ha: 11.21 kg/ha. Put shortly:
as §2

The test system of test [13] is Cocklebur. Nature of the test: Post-emergence herbicide test. The conditions noted are these: Xanthium strumarium, read-out: % plant inhibition (Cobu); for inhibition at 1120 g/ha: 1.12 kg/ha; for inhibition at 11210 g/ha: 11.21 kg/ha. Put shortly: as §2
Test [14] has as its system Downy Brome. Nature of the test: Post-emergence herbicide test. Conditions: Bromus tectorum, read-out: % plant inhibition (Dobr); for inhibition at 1120 g/ha: 1.12 kg/ha; for inhibition at 11210 g/ha: 11.21 kg/ha. The gist of the method: as §2
The test system of test [15] is Indian Mustard. Nature of the test: Post-emergence herbicide test. Conditions: Brassica juncea, read-out: % plant inhibition (Inmu); for inhibition at 1120 g/ha: 1.12 kg/ha; for inhibition at 11210 g/ha: 11.21 kg/ha. Put shortly: as §2
Test [16] relates to Morningglory. Nature of the test: Post-emergence herbicide test. The conditions noted are these: Ipomoea, read-out: % plant inhibition (Mogl); for inhibition at 1120 g/ha: 1.12 kg/ha; for inhibition at 11210 g/ha: 11.21 kg/ha. The gist of the method:
as §2

The test system of test [17] is Seedling johnsongrass. The experiment in a line: Post-emergence herbicide test. Conditions: Sorghum halepense, read-out: % plant inhibition (Sejg); for inhibition at 1120 g/ha: 1.12 kg/ha; for inhibition at 11210 g/ha: 11.21 kg/ha. Put shortly:
as §2

The subject of test [18] is Velvetleaf. The experiment in a line: Post-emergence herbicide test. The conditions noted are these: Abutilon theophrasti, read-out: % plant inhibition (Vele); for inhibition at 1120 g/ha: 1.12 kg/ha; for inhibition at 11210 g/ha: 11.21 kg/ha. Put shortly:
as §2

In test [19] the test system is Wild buckwheat. The experiment in a line: Post-emergence herbicide test. Conditions: Fallopia convolvulus, read-out: % plant inhibition (Wibw); for inhibition at 1120 g/ha: 1.12 kg/ha; for inhibition at 11210 g/ha: 11.21 kg/ha. Put shortly:
as §2

Test [20] deals with Yellow nutsedge. Nature of the test: Post-emergence herbicide test. Conditions: Cyperus, read-out: % plant inhibition (Yens); for inhibition at 1120 g/ha: 1.12 kg/ha; for inhibition at 11210 g/ha: 11.21 kg/ha. The gist of the method: as §2

Turning to `Cn1nc(-c2cc(C=O)c(Cl)cc2F)c(Cl)c1C(F)(F)F` [Compound 133, 2-chloro-5-[4-chloro-1-methyl-5-(trifluoromethyl)-1H-pyrazol-3-yl]-4-fluorobenzaldehyde], the inhibition (commonly the percentage by which the read-out fell short of the control) at 1120 g/ha with Annual bluegrass [1] is 20%; in the test with Barnyardgrass [2] it was 80%; with Cocklebur [3] it was 40%; in the test with Downy Brome [4], 0%; with Indian Mustard [5], 100%; in the test with Morningglory [6], 70%. Moreover, the inhibition at 1120 g/ha with Seedling johnsongrass [7] was determined as 80%; in the test with Velvetleaf [8], 100%; in the test with Wild buckwheat [9] it was 70%; in the test on Yellow nutsedge [10], 20%; in the test on Annual bluegrass [11] it was 0%; in the test with Barnyardgrass [12], 50%. The inhibition at 1120 g/ha in the test with Cocklebur [13] worked out at 100%; in the test with Downy Brome [14], 20%; in the test with Indian Mustard [15], 40%; in the test with Morningglory [16] it was 100%; with Seedling johnsongrass [17], 50%; with Velvetleaf [18], 100%. Also, the inhibition at 1120 g/ha in the test with Wild buckwheat [19] came out at 80%; in the test on Yellow nutsedge [20], 40%.

`Cn1nc(-c2cc(C(=O)OC3CCCCC3)c(Cl)cc2F)c(Cl)c1C(F)(F)F` [Compound 134]: the inhibition at 1120 g/ha in the test on Annual bluegrass [1] worked out at 50%; in the test on Barnyardgrass [2], 10%; in the test with Cocklebur [3], 30%; with Downy Brome [4], 70%; with Indian Mustard [5], 60%; with Morningglory [6] it was 20%. Further, the inhibition at 1120 g/ha in the test on Seedling johnsongrass [7] was determined as 40%; in the test with Velvetleaf [8], 70%; in the test on Wild buckwheat [9], 90%; with Yellow nutsedge [10] it was 0%; in the test with Annual bluegrass [11], 100%; with Barnyardgrass [12], 100%. The inhibition at 1120 g/ha in the test with Cocklebur [13], with Downy Brome [14], with Indian Mustard [15], with Morningglory [16], in the test on Seedling johnsongrass [17] and in the test with Velvetleaf [18] was 100% throughout. Moreover, the inhibition at 1120 g/ha was 100% with Wild buckwheat [19] and 20% with Yellow nutsedge [20].

Turning to `CCC(C)COC(=O)c1cc(-c2nn(C)c(C(F)(F)F)c2Cl)c(F)cc1Cl` (centres unmarked) [Compound 140], the inhibition at 1120 g/ha in the test on Annual bluegrass [1] came out at 30%; with Barnyardgrass [2], 0%; in the test with Cocklebur [3] it was 80%; with Downy Brome [4], 60%; with Indian Mustard [5] it was 70%; in the test with Morningglory [6] it was 70%. The inhibition at 1120 g/ha with Seedling johnsongrass [7] came out at 70%; with Velvetleaf [8] it was 90%; in the test with Wild buckwheat [9], 70%; in the test on Yellow nutsedge [10] it was 0%; with Annual bluegrass [11], 100%; with Barnyardgrass [12], 100%. Moreover, the inhibition at 1120 g/ha in the test with Cocklebur [13] is 100%; with Downy Brome [14] it was 100%; with Indian Mustard [15] it was 90%; in the test on Morningglory [16], 100%; with Seedling johnsongrass [17], 100%; with Velvetleaf [18], 100%. The results for the inhibition at 1120 g/ha with Wild buckwheat [19] and with Yellow nutsedge [20] were 90% and 10%, respectively.

As for `Cn1nc(-c2cc(COCCF)c(Cl)cc2F)c(Cl)c1C(F)(F)F` [Compound 116], the inhibition at 1120 g/ha with Annual bluegrass [1] stood at 90%; with Barnyardgrass [2], 90%; with Cocklebur [3], 50%; in the test with Downy Brome [4], 80%; in the test with Indian Mustard [5], 90%; in the test with Morningglory [6] it was 90%. Besides, the inhibition at 1120 g/ha amounted to 90% with Seedling johnsongrass [7]; 100% with Velvetleaf [8]; 100% with Wild buckwheat [9]; 0% in the test with Yellow nutsedge [10]; 80% in the test with Annual bluegrass [11]; 80% in the test on Barnyardgrass [12]. For the same compound, the inhibition at 1120 g/ha is 100% in the test with Cocklebur [13]; 70% with Downy Brome [14]; 80% with Indian Mustard [15]; 100% in the test with Morningglory [16]; 70% in the test on Seedling johnsongrass [17]; 100% with Velvetleaf [18]. Also, the values for the inhibition at 1120 g/ha in the test on Wild buckwheat [19] and in the test on Yellow nutsedge [20] were 80% and 20%, respectively.

Take `Cn1nc(-c2cc(OCc3ccccn3)c(Cl)cc2F)c(Cl)c1C(F)(F)F` [Compound 251]: the inhibition at 1120 g/ha in the test on Annual bluegrass [1] worked out at 50%; in the test on Barnyardgrass [2], 0%; with Cocklebur [3] it was 30%; with Downy Brome [4], 80%; in the test with Indian Mustard [5], 20%; in the test on Morningglory [6], 40%. Moreover, the inhibition at 1120 g/ha in the test with Seedling johnsongrass [7] is 70%; in the test on Velvetleaf [8], 60%; in the test with Wild buckwheat [9] it was 90%; with Yellow nutsedge [10], 0%; with Annual bluegrass [11], 80%; with Barnyardgrass [12], 90%. Further, the inhibition at 1120 g/ha in the test with Cocklebur [13] came out at 90%; in the test on Downy Brome [14] it was 100%; in the test with Indian Mustard [15], 70%; with Morningglory [16] it was 100%; in the test on Seedling johnsongrass [17] it was 100%; in the test with Velvetleaf [18] it was 100%. Besides, the inhibition at 1120 g/ha in the test with Wild buckwheat [19] turned out to be 90%; with Yellow nutsedge [20] it was 10%.

For `Cn1nc(-c2cc(N3CCOCC3)c(Cl)cc2F)c(Cl)c1C(F)(F)F` [Compound 99], the inhibition at 11210 g/ha with Annual bluegrass [1] was 80%; in the test on Barnyardgrass [2] it was 90%; in the test on Cocklebur [3], 80%; with Downy Brome [4] it was 100%; in the test with Indian Mustard [5], 100%; in the test with Morningglory [6], 90%. The inhibition at 11210 g/ha in the test with Seedling johnsongrass [7] is 90%; in the test with Velvetleaf [8] it was 100%; in the test with Wild buckwheat [9] it was 100%; with Yellow nutsedge [10] it was 30%; in the test with Annual bluegrass [11], 100%; with Barnyardgrass [12], 100%. The inhibition at 11210 g/ha was found to be 90% with Cocklebur [13]; 90% in the test with Downy Brome [14]; 100% in the test on Indian Mustard [15]; 100% in the test on Morningglory [16]; 100% in the test with Seedling johnsongrass [17]; 100% with Velvetleaf [18]. For the same compound, the inhibition at 11210 g/ha with Wild buckwheat [19] came to 100%; with Yellow nutsedge [20], 10%.

Turning to `Cn1nc(-c2cc(N(S(C)(=O)=O)S(C)(=O)=O)c(Cl)cc2Cl)c(Cl)c1C(F)(F)F` [Compound 87], the inhibition at 11210 g/ha in the test with Annual bluegrass [1] was determined as 10%; in the test with Barnyardgrass [2], 40%; in the test on Cocklebur [3] it was 10%; with Downy Brome [4] it was 20%; in the test with Indian Mustard [5], 70%; in the test with Morningglory [6], 70%. For the same compound, the inhibition at 11210 g/ha came to 30% in the test on Seedling johnsongrass [7]; 90% with Velvetleaf [8]; 90% with Wild buckwheat [9]; 10% with Yellow nutsedge [10]; 10% with Annual bluegrass [11]; 20% in the test on Barnyardgrass [12]. Also, the inhibition at 11210 g/ha in the test with Cocklebur [13] was 50%; with Downy Brome [14], 0%; with Indian Mustard [15], 30%; with Morningglory [16], 70%; in the test with Seedling johnsongrass [17] it was 40%; in the test with Velvetleaf [18], 100%. The inhibition at 11210 g/ha worked out at 40% in the test on Wild buckwheat [19] and 10% in the test on Yellow nutsedge [20].
